Measurements taken from a melting point compilation (Tetko et al.; mined from patent text by program, amines drawn as free bases though some values may be those of a salt).

**Q.** For `Nc1ccc(C(=O)NC2CCN(CCCn3cnc4c(N)ncnc43)CC2)cc1`, which melting point is on record?
**A.** 247 to 248 °C

**Q.** With `NS(=O)(=O)c1cc(C(=O)Nn2cnc3cc(C(F)(F)F)ccc32)ccc1Cl` as the compound, how does the melting point read?
**A.** 164 °C

**Q.** Which melting point does the source give for `COc1cccc(Cl)c1CC(=O)O` here?
**A.** 164 to 165 °C

**Q.** With `COc1ccc(CNC(=O)C(=O)NCCc2ccccn2)cc1` as the compound, how does the melting point read?
**A.** 156 to 158 °C

**Q.** Which melting point does the source give for `COC(=O)c1cc2ccc(OCCc3ccccc3)cc2oc1=O` here?
**A.** 100 to 101 °C

**Q.** Which melting point does the source give for `CC(O)CCSC(=S)Nc1ccc(Cl)cn1` (configuration not stated) here?
**A.** 120 °C

**Q.** For `CC(NS(=O)(=O)c1cc(C(=O)CCl)ccc1Cl)c1ccccc1` (configuration not stated), which melting point is on record?
**A.** 127 °C

**Q.** Which melting point does the source give for `CCC(CCCCc1ccccc1)(CC(=O)O)S(=O)(=O)c1ccc(OC)cc1` (configuration not stated) here?
**A.** 44 to 46 °C

**Q.** For `CC(C)(C)C(O)(c1ccccc1)c1cc(Cl)ccc1O` (configuration not stated), which melting point is on record?
**A.** 146 °C

**Q.** Which melting point does the source give for `CCCCCS(=O)(=O)NC(=O)/C=C/c1ccc(OCCOC2CC2)cc1Oc1ncc(C(F)(F)F)cc1Cl` here?
**A.** 105 to 106 °C

**Q.** For `CSC1=NS(=O)(=O)c2cscc21`, which melting point is on record?
**A.** 184 to 186 °C

**Q.** With `O=C(O)CCC(=O)NNc1ccnc2c(NC(=O)c3c(Cl)cccc3Cl)cccc12` as the compound, how does the melting point read?
**A.** 166 to 170 °C

**Q.** With `NNC(=O)CCCSc1nccc(NC(N)=NCC(F)(F)F)n1` as the compound, how does the melting point read?
**A.** 192 to 195 °C

**Q.** For `Cc1cnc(I)c(OCc2ccccc2)c1`, which melting point is on record?
**A.** 83 to 85 °C

**Q.** Which melting point does the source give for `O=C(NO)c1ccc(CNC(=O)c2[nH]c(-c3ccc(O)cc3)cc2-c2ccsc2)cc1` here?
**A.** 121 to 122 °C

**Q.** Which melting point does the source give for `O=C(NC1CCc2ccccc2C1=O)c1ccccc1` (configuration not stated) here?
**A.** 175 °C

**Q.** Which melting point does the source give for `Oc1ccc(Nc2nnc(Cc3ccncc3)c3ccccc23)cc1` here?
**A.** 239 to 241 °C

**Q.** With `Cc1c(NC(=O)c2ccc(-c3cccc(NC(=O)C(C)C)c3)cc2)ccc2cc(CN3CCCC3)cnc12` as the compound, how does the melting point read?
**A.** 152 to 155 °C

**Q.** For `O=C(O)c1ccccc1CCc1n[nH]c2c1c(=O)n(-c1ccccc1)c1ncccc21`, which melting point is on record?
**A.** 302 to 308 °C

**Q.** Which melting point does the source give for `CC1CCCN(c2c(Br)cc3c4c(cccc24)C(=O)N(O)C3=O)C1` (configuration not stated) here?
**A.** > 250 °C

**Q.** Which melting point does the source give for `CC(C)(C)c1cc(CCc2cc(F)cc(F)c2NC(=O)NCC(C)(C)c2ccc(Cl)c(Cl)c2)cc(C(C)(C)C)c1O` here?
**A.** 159 to 160 °C

**Q.** For `Cc1cccc(C)c1N(C(=O)CN)C(=O)CCl`, which melting point is on record?
**A.** 135 to 137 °C

**Q.** Which melting point does the source give for `COc1ccnc(-c2nc(=O)c3ccccc3s2)c1` here?
**A.** 214 to 215 °C

**Q.** For `CC(=O)NN=C(C)c1ccc2nnn(Cc3ccc4ncccc4c3)c2n1`, which melting point is on record?
**A.** 249 to 251 °C

**Q.** Which melting point does the source give for `O=C(O)C(c1ccc([N+](=O)[O-])cc1)N1CCCC1` (configuration not stated) here?
**A.** 103 to 105 °C

**Q.** For `O=C(O)CCCCCCCCc1cccs1`, which melting point is on record?
**A.** 32 to 33 °C

**Q.** With `COC(=O)c1nc2cc(I)ccc2c(O)c1C(=O)OC` as the compound, how does the melting point read?
**A.** 243 to 244 °C

**Q.** Which melting point does the source give for `CC(C)(C)P(=O)(O)OCCCN` here?
**A.** 253 to 255 °C

**Q.** With `Cc1oc(-c2ccccc2)nc1CCOc1ccc(Cn2cc(CC(=O)O)c(-c3ccccc3)n2)cn1` as the compound, how does the melting point read?
**A.** 148 to 149 °C

**Q.** For `Nc1ccc(C23CC(C2)C(=O)N(Cc2ccccc2)C3=O)cc1`, which melting point is on record?
**A.** 164 to 166 °C

**Q.** Which melting point does the source give for `O=c1[nH]nc(-c2ccccc2)c(-c2ccccc2)c1-c1ccccc1` here?
**A.** 290 to 292 °C

**Q.** Which melting point does the source give for `COc1ccc2c(c1)CC(CCCNCCCSc1nnc(-c3ccccc3)n1C)CC2` (configuration not stated) here?
**A.** 92 to 95 °C

**Q.** Which melting point does the source give for `CCOC(=O)C(C(=O)OCC)c1cccc2ccccc12` here?
**A.** 57 to 59 °C

**Q.** With `C=CCc1cccc(C[C@H](NC(=O)OC(C)(C)C)[C@H](O)CCl)c1` as the compound, how does the melting point read?
**A.** 123 to 126 °C

**Q.** Which melting point does the source give for `CN(C)c1ccc(Nc2ccccc2)cc1` here?
**A.** 163 to 166 °C

**Q.** For `NC(=O)c1nc(-c2ccccn2)n2c1CN=C(c1ccccc1Cl)c1cc(Cl)ccc1-2`, which melting point is on record?
**A.** 255 to 257 °C

**Q.** Which melting point does the source give for `CN(C)S(=O)(=O)n1c(C(=S)NCO)nc2cc(Cl)c(Cl)cc21` here?
**A.** 140 to 142 °C

**Q.** Which melting point does the source give for `c1ccc(N2CCNNCC2)cc1` here?
**A.** 211 to 218 °C

**Q.** For `Cc1cc2ccccc2nc1Sc1ccc2c(c1)CC[C@H]1N(C)C(=O)CC[C@]21C`, which melting point is on record?
**A.** 185 to 193 °C

**Q.** Which melting point does the source give for `C=C(C)c1nc2cc3c(cc2[nH]1)NC(=O)C3(C)C` here?
**A.** 270 to 273 °C

**Q.** For `CN/C(=C1/Sc2ccccc2C1=O)c1ccccc1`, which melting point is on record?
**A.** 154 to 155 °C

**Q.** Which melting point does the source give for `N#Cc1[nH]c2ccc(C(=O)O)cc2c1-c1ccccc1` here?
**A.** 302 to 304 °C

**Q.** With `CCOCc1nc2c(N)nc(C)c(C)c2n1CCOCCCc1cccnc1` as the compound, how does the melting point read?
**A.** 78 to 78.5 °C

**Q.** Which melting point does the source give for `CCN(CC)C(=O)c1cc(-c2cccs2)c2occc2c1` here?
**A.** 64 °C

**Q.** For `O=C(O)Cc1cccc2c(=O)cc(-c3ccccc3F)oc12`, which melting point is on record?
**A.** 179 to 181 °C

**Q.** Which melting point does the source give for `CC(C)c1cccc(S(=O)(=O)n2c(CCCC(=O)O)cc3cc(C(F)(F)F)ccc32)c1` here?
**A.** 160 °C

**Q.** For `C#CCSc1nn(C(=O)NS(=O)(=O)c2c(C)cccc2OCCC)c(=O)n1C`, which melting point is on record?
**A.** 151 °C

**Q.** For `COc1c(Cl)ccc(-c2cc(N)c(Cl)c(C(=O)N(C)OC)n2)c1F`, which melting point is on record?
**A.** 159 to 162 °C

**Q.** For `Cc1cc(SC(C)C)c(NC(=O)CCCCCCSc2nc3ccccc3o2)c(SC(C)C)n1`, which melting point is on record?
**A.** 76 to 78 °C

**Q.** With `CCC(=O)N1CCC(NC(=O)Nc2ccc(C(=O)OC)cc2)CC1` as the compound, how does the melting point read?
**A.** 201 to 204 °C

**Q.** Which melting point does the source give for `NS(=O)(=O)Oc1cccc([N+](=O)[O-])c1` here?
**A.** 118 to 120 °C

**Q.** Which melting point does the source give for `CCOC(=O)c1ccc(OCc2cnccn2)cc1` here?
**A.** 76.1 °C
